In patent publication US4489090A, “Dibenzocycloalkanamido and dibenzothioxanthenyl benzoic acids” (American Cyanamid Company, priority 1983, dated 1984) one finds inhibition data, which are given here for 5 compounds.

In this assay the target is T1, fatty acyl CoA:cholesterol acyl transferase (ACAT) (Rattus norvegicus, UniProt O70536).
T1 construct: The supernatant, containing the microsomal fraction, served as the source of the cholesterol-esterifying enzyme; from tissue; host or cells: rat adrenals, homogenate supernatant (1,000 x g) containing the microsomal fraction
T1 sequence (O70536 1-545): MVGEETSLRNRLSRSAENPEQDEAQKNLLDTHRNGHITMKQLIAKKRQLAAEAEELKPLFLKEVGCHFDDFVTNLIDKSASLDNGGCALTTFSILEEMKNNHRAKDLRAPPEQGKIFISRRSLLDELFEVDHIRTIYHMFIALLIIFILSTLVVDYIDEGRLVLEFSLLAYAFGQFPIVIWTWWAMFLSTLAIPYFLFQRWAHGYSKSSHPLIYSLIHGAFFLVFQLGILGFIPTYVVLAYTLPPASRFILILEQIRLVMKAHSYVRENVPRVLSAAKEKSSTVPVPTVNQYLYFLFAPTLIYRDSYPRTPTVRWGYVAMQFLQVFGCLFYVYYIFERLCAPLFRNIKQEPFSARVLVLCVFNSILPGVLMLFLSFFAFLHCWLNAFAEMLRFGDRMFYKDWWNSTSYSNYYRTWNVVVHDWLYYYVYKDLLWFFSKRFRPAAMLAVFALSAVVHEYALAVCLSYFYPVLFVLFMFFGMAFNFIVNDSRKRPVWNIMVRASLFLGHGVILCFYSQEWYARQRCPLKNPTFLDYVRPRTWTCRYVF
In words: Inhibition of enzymatic esterification of cholesterol (ACAT) in rat adrenal supernatant containing the microsomal fraction. It counts as biochemical. Conditions: final concentration of test compound 5.2 μg./ml., 14C-oleoyl CoA, 37° C., read-out: % INHIBITION (percent inhibition of the ACAT enzyme as compared to control values). On the procedure: The compounds of the present invention were tested for their ability to inhibit the enzymatic esterification of cholesterol according to the following procedure:
Rat adrenals were homogenized in 0.2M monobasic potassium phosphate buffer, pH 7.4, and centrifuged at 1,000 times gravity for 15 minutes at 5° C. The supernatant, containing the microsomal fraction, served as the source of the cholesterol-esterifying enzyme, fatty acyl CoA:cholesterol acyl transferase (ACAT). A mixture comprising 50 parts of adrenal supernatant, 10 parts of albumin (BSA) (50 mg./ml.), 20 parts of oleoyl CoA (^14 C-0.4 μCi), 3 parts of test compound, and 500 parts of buffer was pre-incubated at 37° C. for 10 minutes. After treatment with 20 parts of oleoyl CoA (^14 C-0.4 μCi), the mixture was incubated at 37° C. for 10 minutes. A control mixture, omitting the test compound, was prepared and treated in the same manner. The lipids from the incubation mixture were extracted into an organic solvent and separated by thin-layer chromatography. The cholesterol ester fraction was counted in a scintillation counter. This procedure is a modification of that described by Hashimoto, et al., Life Scie., 12 (Part II), 1-12 (1973).
The results of this test on representative compounds of this invention appear in Table I. The final concentration of the test compound was 5.2 μg./ml., and effectiveness of the compound is expressed as percent inhibition of the ACAT enzyme as compared to control values.
A word on the inhibition: it is the percentage by which the read-out fell short of the control. Turning to `O=C(C=C1c2ccccc2C=Cc2ccccc21)Nc1ccc(C(=O)O)cc1` [4-(5H-Dibenzo[a,d]cycloheptene-Δ^5,α -acetamido) benzoic acid], the inhibition at 5.2 µg/mL is 47%.

As to `O=C(CC1c2ccccc2Sc2ccccc21)Nc1ccc(C(=O)O)cc1` [4-[Thioxanthene-9-acetamido]benzoic acid, 4-[(9-Thioxanthenyl)acetamido]benzoic acid], the inhibition at 5.2 µg/mL came to 37%.

For the compound `CCOC(=O)c1ccc(NC(=O)C=C2c3ccccc3C=Cc3ccccc32)cc1` [Ethyl 4-(5H-dibenzo[a,d]cycloheptene-Δ^5,α -acetamido) benzoate], the inhibition at 5.2 µg/mL amounted to 20%.

Consider `CCOC(=O)c1ccc(NC(=O)CC2c3ccccc3Sc3ccccc32)cc1` [Ethyl 4-[(9-thioxanthenyl)acetamido]benzoate], for which the inhibition at 5.2 µg/mL stood at 9%.

As for `O=C(C=C1c2ccccc2CCc2ccccc21)Nc1ccc(C(=O)O)cc1` [p-(10,11-Dihydro-5H-dibenzo[a,d]cycloheptene-Δ^5,α -acetamido)benzoic acid], the inhibition at 5.2 µg/mL is 51%.
